Here are results for 3 compounds from patent US20100189701A1, “METHODS AND COMPOSITIONS TO TREAT ARRHYTHMIAS” (priority 2007, published 2010).

In series [1] the test system is neonatal myocyte cultures. Kind of series: Optical recording of CV and maximum pacing frequency in neonatal myocyte cultures. The class given is cell-based. To be noted: high K (10.4 mM), vs GFP cultures. Here is the method:
Adenoviral treated neonatal myocyte cultures expressed SkM1 or GFP and were studied in normal and high (10.4 mM) K. Left: The effectiveness of SkM1 expression to maintain high CV persists as pacing frequency increases.
To determine if the gating characteristics of the expressed channel allow this protective effect to persist at higher frequencies, as may occur during reentrant arrhythmias, CV restitution relations in myocyte cultures expressing SkM1 Na channels+GFP and in control cultures (expressing GFP alone) was studied. FIG. 53 illustrates that CV remains greater as frequency increases, both in normal Tyrode's solution and in elevated K solution. Further, in the absence of SkM1, the breakpoint frequency is reduced in high K.

For series [2], the system named is neonatal myocytes. Kind of series: Action potential upstroke in neonatal myocytes under K depolarization. It is filed as cell-based, rat. Here is the method:
FIG. 49: Effect of K depolarization on action potential upstroke in neonatal myocytes in the absence and presence of SKM1 expression. […] The elevated K reduced the upstroke to 68% of its control value (mean value after elevated K is 56% of control). Bottom) In an SKM1 expressing myocyte the upstroke is better preserved, measuring 83% of its control value in elevated K.
Top) In GFP but not SkM1 cultures there is a significant effect on CV of increasing K from 5.4 to 10 mM.
Action potentials are recorded using a patch electrode in whole cell mode on cells superfused at 35° C. These experiments are conducted on monolayer cultures when studying control conditions or when employing viral expression, which achieves near uniform expression. For studying transfected cells, the culture is resuspended on the day of experiment and cells selected on the basis of GFP fluorescence, with the GFP being part of the channel vector or co-transfected with a separate vector. Extracellular and pipette solutions are as previously employed. The external solution contains (mM): NaCl 140, KCl 5.4, CaCl2 1, MgCl2 1, HEPES 5, glucose 10, adjusted to pH 7.4. The internal solution contains (mM): aspartic acid 130, KOH 146, NaCl10, CaCl2 2, EGTA 5, HEPES10, MgATP 2, adjusted to pH 7.2. […] Parameters recorded are Vmax, MDP, action potential amplitude (AMP) and APD50.

Series [3] deals with hMSCs. Kind of series: Patch clamp of hMSCs expressing SkM1 Na channel. The class given is cell-based, human. Conditions: expressed in hMSCs. An excerpt: Left: An hMSC transfected with SkM1 was held at potentials between −100 mV and −70 mV and pulsed to 0 mV. Since the current induced from −70 mV is > half the magnitude of the current induced from −100 mV the midpoint of inactivation was positive to −70 mV. Right: hMSCs were held at holding potentials between −100 and −55 mV for 1.5 sec and pulsed to 0 mV for 150 msec. The Boltzmann 2-state fit gives a midpoint of −62.4±3.2 mV and a slope factor of −10.3±3.2 mV.
For research on myocardial infarct-induced ventricular tachycardia, a Na channel gene with a more positive inactivation versus voltage relationship than found normally in cardiac myocytes was required. The skeletal muscle Na channel was investigated because of its reported midpoint of inactivation of −68 mV.
Background: The patch-clamp technique gives a direct electrical read-out from membranes.

The subject of series [4] is epicardial border zone. Kind of series: Canine infarct epicardial border zone, electrograms and microelectrode study. Conditions: 5 d after infarct and injection. The class given is in vivo, dog.
For series [5] the following is noted: cited from earlier work.
The subject of series [6] is neonatal rat ventricular myocyte cultures. Kind of series: Conduction velocity in neonatal rat ventricular myocyte cultures on multi-electrode array. The class given is cell-based. Conditions: K 5.4 to 10 mM.
For series [7], the system named is Cx43, 40, 45. Kind of series: Example 4: chemical chaperone treatment of hMSC/myocyte co-culture, connexin expression and coupling. It is filed as cell-based. Conditions: initial results. Here is the method:
hMSCs and myocytes in co-culture are treated with a chemical chaperone (4 PB, 4-Phenylbutric acid, FDA approved) or zp123 (Rotigaptide) a synthetic antiarrhythmia peptide, that increases Cx43 mediated coupling. Western blot analysis and RT-PCR will be used to test protein abundance and expression for Cx43, 40, 45. Dual whole cell patch clamp will be used to determine the time course of junctional coupling. Western blot analysis and RT-PCR to test for protein abundance and expression for Cx43, 40, 45. The effects of 4PB and zp123 on hMSCs alone and myocytes alone will be assesed. Co-culturing of hMSCS and myocytes (atrial or ventricular) will also be done and a vital dye (Valiunas et al., 2005) will be used on hMSCs so that after defined time intervals of co-culture fluorescence activated cell sorting can be used to isolate the cell types and Western blot analysis and RT-PCR can be performed to assess abundance and expression respectively. A peptidase, such as dipeptidyl-peptidase or equivalent, will be used to cleave any zp123 that is secreted into the extracellular space. Dual whole cell patch clamp will be used to determine the time course of junctional coupling over a 96 hour interval at 24, 48 and 96 hours respectively. […] This should translate into enhanced coupling in the form of increased junctional conductance relative to controls.

The subject of series [8] is Cx43. Kind of series: Western blot of HeLa cells expressing Cx43 exposed to 4PB. It is filed as cell-based. To be noted: HeLa cells transfected with Cx43, increasing doses. An excerpt:
FIG. 34 illustrates a Western blot where HeLa cells expressing Cx43 have been exposed to increasing doses of 4PB.
4PB is an FDA approved drug that can be administered orally, which is being tested for effectiveness in spinal muscular atrophy (Wirth et al., 2006; Brahe et al., 2005), and cystic fibrosis (Singh et al., 2006). […] In addition, stress in the form of mildly elevated temperatures up-regulates connexin expression and increases the total number of functional channels (VanSlyke and Musil, 2005). The chemical chaperone (4PB), a known inhibitor of histone deacetylase, an enzyme associated with inactivation of gene transcription, increases Cx43 production at concentrations in the mM range and exposure times of hours. Not only is Cx43 production elevated 2-5 fold but enhanced dye transfer is observed (Asklund et al., 2004). […] The present inventors have determined that the time course of coupling between hMSCs or model cells with myocytes reaches 50% of maximum within 48 hours.

Series [9] has as its system Cx43. Conditions: mM range, exposure times of hours; cited from earlier work.
In series [10] the target is native SCN5A channel (Homo sapiens, UniProt Q14524). To be noted: cited from earlier work.
Chain of native SCN5A channel (Q14524 whole entry): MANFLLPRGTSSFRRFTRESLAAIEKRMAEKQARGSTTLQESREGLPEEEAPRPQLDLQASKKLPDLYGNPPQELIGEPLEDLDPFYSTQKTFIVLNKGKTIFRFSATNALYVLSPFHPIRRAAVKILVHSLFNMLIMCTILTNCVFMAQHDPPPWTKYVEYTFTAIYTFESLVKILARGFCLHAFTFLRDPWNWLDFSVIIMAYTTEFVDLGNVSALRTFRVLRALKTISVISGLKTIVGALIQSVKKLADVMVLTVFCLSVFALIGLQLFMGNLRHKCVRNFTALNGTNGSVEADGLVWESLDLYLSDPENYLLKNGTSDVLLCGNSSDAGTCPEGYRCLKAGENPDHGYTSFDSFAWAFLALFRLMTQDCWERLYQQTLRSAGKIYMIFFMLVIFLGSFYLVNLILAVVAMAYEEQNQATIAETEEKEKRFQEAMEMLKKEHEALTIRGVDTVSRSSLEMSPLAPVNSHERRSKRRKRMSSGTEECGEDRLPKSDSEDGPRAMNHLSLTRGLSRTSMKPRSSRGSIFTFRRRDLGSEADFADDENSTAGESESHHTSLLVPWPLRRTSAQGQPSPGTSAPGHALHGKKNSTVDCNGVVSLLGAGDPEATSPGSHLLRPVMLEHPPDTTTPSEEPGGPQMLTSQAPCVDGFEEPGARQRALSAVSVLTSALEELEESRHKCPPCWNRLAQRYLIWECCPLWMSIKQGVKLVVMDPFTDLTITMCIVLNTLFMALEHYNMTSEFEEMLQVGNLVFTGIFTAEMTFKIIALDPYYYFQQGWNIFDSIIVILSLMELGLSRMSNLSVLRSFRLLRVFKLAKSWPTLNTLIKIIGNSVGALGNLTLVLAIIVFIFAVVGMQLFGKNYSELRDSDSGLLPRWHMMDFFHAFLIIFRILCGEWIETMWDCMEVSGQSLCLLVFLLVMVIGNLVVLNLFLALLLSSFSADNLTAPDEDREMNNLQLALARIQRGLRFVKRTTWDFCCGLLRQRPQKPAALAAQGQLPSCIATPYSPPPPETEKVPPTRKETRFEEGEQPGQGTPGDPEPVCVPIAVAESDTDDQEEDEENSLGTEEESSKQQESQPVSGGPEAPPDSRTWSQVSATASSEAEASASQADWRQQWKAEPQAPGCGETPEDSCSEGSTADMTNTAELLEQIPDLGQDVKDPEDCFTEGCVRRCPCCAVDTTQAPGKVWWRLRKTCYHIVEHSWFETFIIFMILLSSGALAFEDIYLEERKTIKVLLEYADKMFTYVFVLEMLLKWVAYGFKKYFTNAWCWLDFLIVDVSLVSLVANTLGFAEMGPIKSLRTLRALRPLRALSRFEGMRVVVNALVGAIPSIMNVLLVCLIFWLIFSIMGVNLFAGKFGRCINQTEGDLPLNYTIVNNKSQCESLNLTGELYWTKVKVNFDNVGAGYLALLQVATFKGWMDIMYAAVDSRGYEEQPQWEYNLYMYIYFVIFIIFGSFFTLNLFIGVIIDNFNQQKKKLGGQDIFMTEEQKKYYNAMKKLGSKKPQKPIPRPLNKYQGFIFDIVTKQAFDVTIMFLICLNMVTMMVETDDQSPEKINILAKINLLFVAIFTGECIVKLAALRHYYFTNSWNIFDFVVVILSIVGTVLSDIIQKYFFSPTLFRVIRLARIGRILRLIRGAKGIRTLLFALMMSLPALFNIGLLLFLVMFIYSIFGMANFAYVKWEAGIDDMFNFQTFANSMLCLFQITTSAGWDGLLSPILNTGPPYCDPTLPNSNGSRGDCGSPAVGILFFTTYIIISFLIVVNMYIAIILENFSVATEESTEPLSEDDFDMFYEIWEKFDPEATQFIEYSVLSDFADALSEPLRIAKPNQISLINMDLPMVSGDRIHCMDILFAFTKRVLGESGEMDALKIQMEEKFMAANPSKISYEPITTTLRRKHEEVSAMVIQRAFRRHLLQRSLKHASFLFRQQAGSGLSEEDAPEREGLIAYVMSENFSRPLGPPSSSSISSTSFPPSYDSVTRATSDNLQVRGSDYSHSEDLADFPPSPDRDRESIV

On to “SkM1: skeletal muscle sodium channel, expressed from gene in hMSCs or myocytes”, for which the “break-point frequency (resistance to rhythm instabilities)” value in [1] is on record as “higher break-point frequencies”. For the same compound, the Vmax in series [2] (10 K) is listed as greater than 100 V/s. In series [2] (elevated K (10 mM) vs 5.4 mM), the “action potential upstroke, % of control value” amounted to 83%. For the same compound, the midpoint of inactivation in series [3] is reported as −62.4±3.2 mV; in series [3] (listed as skeletal muscle Na channel) it was −62 mV; in series [3] (listed as skeletal muscle sodium channel) it was −62 mV. Further, the figures for the Slope factor in series [3] (Boltzmann 2-state fit) and in series [5] (steady state inactivation) were −10.3±3.2 mV and −5.4 mV, respectively. The “electrogram at injected epicardial border zone site” value in series [4] is “narrow spike”. The “Vmax, injected site 1 vs non-injected site 2” value in [4] (equivalent membrane depolarization) is listed as “nearly twice that of site 2”. In addition, the inactivation midpoint in series [5] (as stated in Example 16 group description) is recorded as −65 mV. The activation midpoint in series [5] (as worded) is −68 mV. The “effect of membrane depolarization on CV and V′max” value in series [6] is “significantly reduces CV and V′max of control cells, but not the SkM1 expressing cells”.

On to `O=C(O)CCCc1ccccc1` [4PB, 4-Phenylbutric acid], for which, in series [7], the connexin up-regulation result is listed as “causes up-regulation”. Further, the Cx43 expression entry in series [8] was “up-regulates Cx43”. In addition, in series [9], the Cx43 production elevated is on record as 2-5 fold.

Regarding `[Cd+2]` [Cd^2+], in [10], the Kd entry was “a few hundred”.
